Experimental data: patent US4855320A, “5-arylalkyl-4-alkoxy-2(5H)-furanones, intermediates and processes for the preparation thereof and medicaments containing them” (Dr. Willmar Schwabe GmbH & Company, priority 1986, dated 1989)

Tested on: maximum electroshock spasm (MES) in male mice (NMRI)
Assay: MES test (maximum electroshock spasm), inhibition of the extensor spasm
Type: in vivo
Details: mice; for ED50: oral, 1 hour after administration, read-out: ED 50 in the MES test
[1] = Mus musculus, po, 100 mg/kg p.o., 1 hr., % of animals protected 100% against the extensor spasm, read-out: protective action after 1 hr. (MES test)
[2] = Mus musculus, po, 50 mg/kg p.o., 1 hr., read-out: protective action after 1 hr. (MES test)

Molecule | responders at 100 mg/kg [1] | also measured
CCOC1=CC(=O)O[C@H]1[C@H](O)c1ccc(Cl)cc1Cl (relative stereo) [Example 80, threo-5-(2,4-dichlorophenylhydroxymethyl)-4-ethoxy-2(5H)-furanone] | 90% | –
COC1=CC(=O)O[C@H]1[C@H](O)c1c(F)cccc1Cl (relative stereo) [Example 102, threo-5-(2-chloro-6-fluorophenylhydroxymethyl)-4-methoxy-2(5H)-furanone] | 62.5% | –
COC1=CC(=O)O[C@H]1[C@H](OC)c1ccccc1F (relative stereo) [Example 123, threo-4-methoxy-5-[methoxy-(2-fluorophenyl)-methyl]-2(5H)-furanone] | – | responders at 50 mg/kg [2]: 100%
threo-5-[1'-ethoxypropoxy-(2-chlorophenyl)-methyl]-4-methoxy-2-(5H)-furanone [Example 122] | – | protective action after 1 hr. (MES test) (50 mg/kg p.o., 1 hr.): 100%
COC1=CC(=O)O[C@H]1[C@H](O)c1ccc(Br)cc1Cl (relative stereo) [Example 88, threo-5-[(4-bromo-2-chlorophenyl)-hydroxymethyl]-4-methoxy-2(5H)-furanone] | 80% | –
threo-4-methoxy-5-(α-hydroxy-β-phenylethyl)-2(5H)-furanone [Example 104] | – | protective action after 1 hr. (MES test) (100 mg/kg p.o., 1 hr., % of animals protected 100% against the extensor spasm): 37.5%
COC1=CC(=O)O[C@H]1[C@H](OC)c1ccccc1 (relative stereo) [Example 109, threo-4-methoxy-5-[methoxy-(phenyl)-methyl]-2(5H)-furanone] | 40% | –
CCOC1=CC(=O)O[C@H]1[C@H](O)c1ccccc1Cl (relative stereo) [Example 66, threo-5-(2-chlorophenylhydroxymethyl)-4-ethoxy-2(5H)-furanone] | 100% | –
COC1=CC(=O)O[C@H]1[C@H](OC)c1ccc(Cl)cc1Cl (relative stereo) [Example 111, threo-4-methoxy-5-[methoxy-(2,4-dichlorophenyl)-methyl]-2(5H)-furanone] | 100% | –
COCC(OC)O[C@H](c1ccccc1Cl)[C@@H]1OC(=O)C=C1OC (stereo partly drawn) [Example 121, threo-5-[1',2'-dimethoxyethoxy-(2-chlorophenyl)-methyl]-4-methoxy-2(5H)-furanone] | – | responders at 50 mg/kg [2]: 70%
COC1=CC(=O)O[C@H]1[C@H](O)c1cccc(C(F)(F)F)c1 (relative stereo) [Example 72, threo-4-methoxy-5-(3-trifluoromethylphenylhydroxymethyl)-2(5H)-furanone] | 80% | –
COC1=CC(=O)O[C@@]1(C)[C@H](O)c1ccccc1Cl (relative stereo) [Example 89, threo-5-(2-Chlorophenylhydroxymethyl)-4-methoxy-5-methyl-2(5H)-furanone] | 100% | –
COCO[C@H](c1ccccc1C)[C@@H]1OC(=O)C=C1OC (relative stereo) [Example 116, threo-4-methoxy-5-[methoxymethoxy-(2-methylphenyl)-methyl]-2(5H)-furanone] | 70% | –
COC1=CC(=O)O[C@H]1[C@H](O)c1ccccc1[N+](=O)[O-] (relative stereo) [Example 74, threo-4-methoxy-5-(2-nitrophenylhydroxymethyl)-2(5H)-furanone] | 100% | –
COCCOCO[C@H](c1ccccc1Cl)[C@@H]1OC(=O)C=C1OC (relative stereo) [Example 108, threo-4-Methoxy-5-[methoxyethoxymethoxy-(2-chlorophenyl)-methyl]-2(5H)-furanone] | 70% | –
COC1=CC(=O)O[C@H]1[C@H](O)c1cccc(Br)c1 (relative stereo) [Example 69, threo-5-(3-bromophenylhydroxymethyl)-4-methoxy-2(5H)-furanone] | 70% | ED50 (Mus musculus): 93 mg/kg
COC1=CC(=O)O[C@H]1[C@H](O)c1ccc(C(F)(F)F)cc1 (relative stereo) [Example 73, threo-4-methoxy-5-(4-trifluoromethylphenylhydroxymethyl)-2(5H)-furanone] | 60% | –
COC1=CC(=O)O[C@H]1[C@H](O)c1cccc(Cl)c1 (relative stereo) [Example 98, threo-5-(3-chlorophenylhydroxymethyl)-4-methoxy-2(5H)-furanone] | 25% | ED50 (Mus musculus): 84.5 mg/kg
COCO[C@H](c1ccc(Cl)cc1Cl)[C@@H]1OC(=O)C=C1OC (relative stereo) [Example 114, threo-4-methoxy-5-[methoxymethoxy-(2,4-dichlorophenyl)-methyl]-2(5H)-furanone] | 10% | –
COC1=CC(=O)O[C@H]1[C@H](O)c1ccc(Cl)cc1 (relative stereo) [Example 67, threo-5-(4-chlorophenylhydroxymethyl)-4-methoxy-2(5H)-furanone] | 75% | ED50 (Mus musculus): 73.5 mg/kg

Molecule | responders at 100 mg/kg [1] | also measured
COC1=CC(=O)O[C@H]1[C@H](O)c1cc(Cl)cc(Cl)c1 (relative stereo) [Example 84, threo-5-(3,5-dichlorophenylhydroxymethyl)-4-methoxy-2(5H)-furanone] | 70% | –
COCO[C@H](c1ccccc1Cl)[C@@H]1OC(=O)C=C1OC (relative stereo) [Example 107, threo-4-Methoxy-5-[methoxymethoxy-(2-chlorophenyl)-methyl]-2(5H)-furanone] | 100% | ED50 (Mus musculus): 24.5 mg/kg
COC1=CC(=O)O[C@H]1[C@H](OC)c1ccccc1Cl (relative stereo) [Example 110, threo-4-methoxy-5-[methoxy-(2-chlorophenyl)-methyl]-2(5H)-furanone] | 100% | ED50 (Mus musculus): 27.5 mg/kg
CCCOC1=CC(=O)O[C@H]1[C@H](O)c1ccccc1Cl (relative stereo) [Example 99, threo-5-(2-chlorophenylhydroxymethyl)-4-propoxy-2-(5H)-furanone] | 90% | –
COC1=CC(=O)O[C@H]1[C@H](O)c1ccc(Br)cc1 (relative stereo) [Example 100, threo-5-(4-bromophenylhydroxymethyl)-4-methoxy-2(5H)-furanone] | 100% | ED50 (Mus musculus): 67 mg/kg
COC1=CC(=O)O[C@H]1[C@H](O)c1ccccc1Br (relative stereo) [Example 68, threo-5-(2-bromophenylhydroxymethyl)-4-methoxy-2(5H)-furanone] | 100% | ED50 (Mus musculus): 23.5 mg/kg
COC1=CC(=O)O[C@H]1[C@H](O)c1ccccc1C(F)(F)F (relative stereo) [Example 71, threo-4-methoxy-5-(2-trifluoromethylphenylhydroxymethyl)-2-(5H)-furanone] | 100% | –
COC1=CC(=O)O[C@H]1[C@H](O)c1ccccc1F (relative stereo) [Example 70, threo-5-(2-fluorophenylhydroxymethyl)-4-methoxy-2(5H)-furanone] | 100% | ED50 (Mus musculus): 22 mg/kg
COC1=CC(=O)O[C@H]1[C@H](O)c1c(Cl)cccc1Cl (relative stereo) [Example 103, threo-5-(2,6-dichlorophenylhydroxymethiyl)-4-methoxy-2(5H)-furanone] | 100% | ED50 (Mus musculus): 37 mg/kg
COC1=CC(=O)O[C@H]1[C@H](OC)c1ccccc1Br (relative stereo) [Example 124, threo-4-methoxy-5-[methoxy-(2-bromophenyl)-methyl]-2(5H)-furanone] | – | responders at 50 mg/kg [2]: 100%
COC1=CC(=O)O[C@H]1[C@H](O)c1ccc(Cl)cc1C(F)(F)F (relative stereo) [Example 87, threo-5-[(4-chloro-2-trifluoromethylphenyl)-hydroxymethyl]-4-methoxy-2(5H)-furanone] | 40% | –
COC1=CC(=O)O[C@H]1[C@H](O)CCc1ccccc1 (relative stereo) [Example 105, threo-4-methoxy-5-(α-hydroxy-γ-phenylpropyl)-2(5H)-furanone] | 12.5% | –
COC1=CC(=O)O[C@H]1[C@H](O)c1ccccc1C (relative stereo) [Example 93, threo-4-methoxy-5-(2-methylphenylhydroxymethyl)-2(5H)-furanone] | 37.5% | –
COC1=CC(=O)O[C@H]1[C@H](O)c1cccc(F)c1 (relative stereo) [Example 96, threo-5-(3-fluorophenylhydroxymethyl)-4-methoxy-2-(5H)-furanone] | 62.5% | ED50 (Mus musculus): 74 mg/kg
COC1=CC(=O)O[C@H]1[C@H](O)c1ccc(Cl)c(Cl)c1 (relative stereo) [Example 83, threo-5-(3,4-dichlorophenylhydroxymethyl)-4-methoxy-2(5H)-furanone] | 50% | –
CCOC1=CC(=O)O[C@H]1[C@H](OC)c1ccc(Cl)cc1Cl (relative stereo) [Example 106, threo-4-Ethoxy-5-[methoxy-(2,4-dichlorophenyl)-methyl]-2(5H)-furanone] | 30% | –
COC1=CC(=O)O[C@H]1[C@H](OC)c1cc(Cl)ccc1Cl (relative stereo) [Example 112, threo-4-methoxy-5-[methoxy-(2,5-dichlorophenyl)-methyl]-2(5H)-furanone] | 100% | –
COCO[C@H](c1ccccc1Br)[C@@H]1OC(=O)C=C1OC (relative stereo) [Example 118, threo-4-methoxy-5-[methoxymethoxy-(2-bromophenyl)-methyl]-2(5H)-furanone] | 100% | –
COC1=CC(=O)O[C@H]1[C@H](O)c1cc(C(F)(F)F)ccc1Cl (relative stereo) [Example 86] | – | responders at 50 mg/kg [2]: 100%
CCOC1=CC(=O)O[C@H]1[C@H](O)c1cc(Cl)ccc1Cl (relative stereo) [Example 82, threo-5-(2,5-dichlorophenylhydroxymethyl)-4-ethoxy-2(5H)-furanone] | – | responders at 150 mg/kg (Mus musculus, po, 150 mg/kg p.o., 1 hr., read-out: protective action after 1 hr. (MES test)): 90%
